{
  "source": "patent US9777054B2",
  "about": "“Soluble fibrin inhibitory peptides and uses thereof” (ENSION INC., priority 2006, dated 2017)",
  "key": {"A375 cells": {"test_system": "A375 cells", "experiment": "Monocyte adherence to tumor cells under flow conditions (FCS2 perfusion stage incubator)", "type": "cell-based, human", "description": "Human peripheral blood monocytes, isolated by density centrifugation and adherence were labeled with the carbocyanine dye (DiI, C18; Molecular Probes, Eugene, Oreg.). They were passed across adherent soluble fibrin treated or untreated tumor cells at a shear force corresponding to that present in small blood capillaries for 1 h (FIGS. 7A and 7B).\nThe number of tumor cells and adherent monocytes were counted in the images and leukocyte adherence was expressed as the number of leukocytes per tumor cell.\nLyophilized murine anti-human monoclonal blocking antibodies directed against αLβ2 (clone 25.3) and CD54 (clone 84H10) were obtained from Beckman-Coulter (Miami, Fla.), as were purified immunoglobulin matched isotypic controls (IgG1 (mouse) Clone 679.1Mc7). Blocking monoclonal anti-£\\M£]2 (clone ICRF44) was obtained from PharMingen (BD Biosciences, San Jose, Calif.). All antibody inhibition experiments were performed using pre-incubation of target cells with 5 μg antibody/106 cells. Experiments were performed in triplicate wells and the results were expressed as the mean+SD for three separate experiments).\nTo simulate the fluid shear stresses present in vivo, coverslips containing Calcein AM labeled, adherent A375 were loaded into the FCS2 stage incubator (Bioptechs Inc., Butler, Pa.) and mounted on the stage of a Leica DMIRB inverted fluorescence microscope equipped with a Hamamatsu Color Chilled 3CCD camera (C5810 model) attached to a computer for data acquisition.\nThe FCS2 incubator is a closed near-laminar flow, temperature-controlled perfusion chamber which facilitates direct observation and scanning of the cells on the coverslip during perfusion with solutions or cell suspensions. It was designed to maintain accurate thermal control and allow high-volume near-laminar flow perfusion. A fluid pathway was formed (Dimensions 0.5 mm×14 mm×25 mm) by separating the microaqueduct slide from the coverslip containing cells with a single silicone gasket with a rectangular bore, generating nearlaminar flow conditions during perfusion. The stage incubator was initially connected to a peristaltic pump on the afferent side using 0.062 inch bore S/P medical grade silicone tubing (Fisher Scientific, Suwanee, Ga.), with a three way in-line tap closed to the incubator inlet. The efferent side was connected to waste. After connection of the electronic temperature control, the coverslips were perfused with RPMI to briefly buffer the cells at 37° C. for fifteen minutes (flow rate of 0.5 ml/min). The inlet was then connected to the tube containing the appropriately treated monocyte suspension (3 mL). The efferent tubing was also connected to the same tube, and Di-I (Gant et al., 1992) labelled monocytes were recirculated across the tumor cells for 1 h, after which, the tubing was set up to the initial configuration and the cells were again washed with RPMI for 10 min to remove unbound monocytes.\nIndividual still images in five randomly chosen fields of view were captured and stored on the computer. The number of monocytes (red) and tumor cells (green) were counted in each field of view and the mean monocyte/tumor cell ratio was calculated. The wall shear stress was calculated using the momentum balance for a Newtonian fluid. The viscosity of water at 37° C. was used as an approximation of the viscosity of the buffer used (RPMI 1640; 0.007 poise). As described in the following equation, the wall shear stress experienced by the monolayer is equal to: T=3 μQ/2a^2b, where T=wall shear stress, μ=coefficient of viscosity (0.007 Poise), Q=volumetric flow rate (0.0083 cm3/s), a=half channel height (0.025 cm), and b=channel width (1.5 cm). The wall shear rate is given by T/μ. […]"}, "fibrinogen": {"target": "T1, fibrinogen (Homo sapiens, UniProt P02679)", "T1 construct": "purchased American Diagnostica Inc., Greenwich, Conn", "T1 sequence (P02679 27-437 isoform P02679-2 limits assumed)": "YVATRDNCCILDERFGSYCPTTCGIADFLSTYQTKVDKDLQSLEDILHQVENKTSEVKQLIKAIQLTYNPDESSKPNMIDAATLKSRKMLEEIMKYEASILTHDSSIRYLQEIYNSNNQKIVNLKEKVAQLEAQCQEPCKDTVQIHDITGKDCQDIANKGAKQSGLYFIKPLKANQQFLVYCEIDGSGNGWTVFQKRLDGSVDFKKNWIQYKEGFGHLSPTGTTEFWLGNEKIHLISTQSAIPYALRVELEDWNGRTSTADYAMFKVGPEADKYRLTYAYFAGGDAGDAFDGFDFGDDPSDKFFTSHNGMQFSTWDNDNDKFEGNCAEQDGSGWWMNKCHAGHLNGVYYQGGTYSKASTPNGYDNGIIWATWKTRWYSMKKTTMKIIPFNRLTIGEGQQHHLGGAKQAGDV", "T1 sequence (P02671 20-629 partner limits assumed)": "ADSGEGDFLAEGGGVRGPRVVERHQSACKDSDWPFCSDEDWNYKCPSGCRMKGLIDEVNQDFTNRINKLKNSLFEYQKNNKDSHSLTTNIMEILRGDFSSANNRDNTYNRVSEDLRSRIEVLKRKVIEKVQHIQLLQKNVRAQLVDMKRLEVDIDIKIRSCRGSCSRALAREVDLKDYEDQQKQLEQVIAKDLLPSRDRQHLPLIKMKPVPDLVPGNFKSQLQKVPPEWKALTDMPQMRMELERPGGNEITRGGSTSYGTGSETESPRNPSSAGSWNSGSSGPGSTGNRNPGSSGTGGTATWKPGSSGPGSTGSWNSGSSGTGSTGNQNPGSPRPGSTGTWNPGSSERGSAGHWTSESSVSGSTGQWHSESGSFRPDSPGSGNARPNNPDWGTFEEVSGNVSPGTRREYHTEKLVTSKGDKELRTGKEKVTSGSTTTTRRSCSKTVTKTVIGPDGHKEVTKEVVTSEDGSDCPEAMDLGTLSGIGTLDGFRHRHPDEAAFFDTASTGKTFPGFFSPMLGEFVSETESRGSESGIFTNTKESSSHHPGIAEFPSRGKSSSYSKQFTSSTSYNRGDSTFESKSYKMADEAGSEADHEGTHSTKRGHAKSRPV", "T1 sequence (P02675 31-491 partner)": "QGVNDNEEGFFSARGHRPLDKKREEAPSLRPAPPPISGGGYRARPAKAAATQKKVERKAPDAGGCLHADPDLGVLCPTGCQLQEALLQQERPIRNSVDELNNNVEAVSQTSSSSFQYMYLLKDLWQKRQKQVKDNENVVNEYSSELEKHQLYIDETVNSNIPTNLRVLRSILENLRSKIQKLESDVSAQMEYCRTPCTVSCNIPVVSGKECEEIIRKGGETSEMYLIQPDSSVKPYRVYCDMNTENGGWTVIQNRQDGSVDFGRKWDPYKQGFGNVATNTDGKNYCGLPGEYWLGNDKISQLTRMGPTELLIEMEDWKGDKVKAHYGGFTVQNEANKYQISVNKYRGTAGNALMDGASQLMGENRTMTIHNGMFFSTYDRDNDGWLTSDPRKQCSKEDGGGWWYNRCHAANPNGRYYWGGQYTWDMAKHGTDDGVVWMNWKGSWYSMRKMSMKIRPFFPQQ", "experiment": "Thrombin induced clotting of purified fibrinogen", "type": "biochemical", "details": "fibrinogen 0.5 mg/ml, thrombin 0.125 U/ml, peptide 4 mmol/L, room temperature", "description": "Experiments were performed to determine if the specific fibrin(ogen) adherence inhibitors also affected (1) fibrinogen clotting in the presence of thrombin, or (2) normal coagulation in recalcified plasma.\nThrombin (0.625 μl (stock 100 U/ml) was added to RPMI 1640 medium containing 25 μl (stock 10 mg/ml) […] or in the presence of 4 mmol/L specific peptide or peptide combination in a total volume of 1 ml. The tubes were left at room temperature and clotting was determined by observed gelation of the solution every 30 s, and the approximate clotting time was recorded. An additional control was also tested in which the fibrin polymerization inhibitor GPRP-NH2 was added to fibrinogen in the presence of P1-P4 prior to thrombin addition. The tube was left at room temperature to determine if clotting was observed."}, "[1]": {"details": "sFn treated with single peptide, incubated with one cell type (P3 tumor cells / P4 monocytes), other cell type untreated"}, "[2]": {"details": "one cell type treated with peptide only (P1 tumor cells / P2 monocytes), the other cell type with sFn"}, "[3]": {"details": "one cell type treated with single peptide then sFn (P1 A375 / P2 monocytes), other cell type with sFn (Bars 4, 5)"}, "[4]": {"details": "effector and tumor cells both pre-treated with single component of the sFn mixture"}},
  "note": "“Also recorded” adds a separate entry of the source. No end group written: not given here.",
  "data": [
    {"substance": "Gly-Pro-Arg-Pro-amide (GPRP-NH2) [reference compound]", "values": [
      {"measurement": "effect on monocyte adherence", "setting": "A375 cells; effector and tumor cells both pre-treated with single component of the sFn mixture, listed as GPRP", "result": "did not significantly inhibit adherence"},
      {"measurement": "effect on monocyte adherence", "setting": "A375 cells; effector and tumor cells both pre-treated with single component of the sFn mixture, listed as GPRPNH2", "result": "no significant (P>0.05 compared to untreated cell adherence) inhibition was observed"},
      {"measurement": "clotting time", "setting": "fibrinogen", "result": "> 15", "unit": "min"}
    ]},
    {"substance": "KFGDPLGYEDVIPEADREG (CHAIN peptide comprising the soluble fibrin protein-binding domain in soluble fibin) [Peptide P4]", "values": [
      {"measurement": "inhibition of monocyte adherence", "setting": "A375 cells; sFn pre-treated with P4 and incubated with monocytes, tumor cells incubated with sFn (Bar 7)", "result": "no inhibition was observed"},
      {"measurement": "inhibition of monocyte adherence", "setting": "A375 cells; [1]", "result": "no inhibition was observed"}
    ]},
    {"substance": "KVILPRGGSVLVTC (CHAIN peptide comprising amino acids 8-21 on the ICAM-1 first immunoglobulin domain) [Peptide P3]", "values": [
      {"measurement": "inhibition of monocyte adherence", "setting": "A375 cells; [1]", "result": "little or no inhibition was observed"}
    ]},
    {"substance": "NNQKIVNLKEKVAQLEA (CHAIN peptide comprising the cell-binding domain in soluble fibin.) [Peptide P1]", "values": [
      {"measurement": "effect on monocyte adherence", "setting": "A375 cells; [2]", "result": "Inhibition was still observed; also recorded: inhibited adherence to a similar level to that of sFn treatment of both cells"},
      {"measurement": "inhibition of monocyte adherence", "setting": "A375 cells; [3]", "result": "inhibition was still observed"}
    ]},
    {"substance": "YKSMKKTTMKIIPFNRLTIF (CHAIN peptide comprising the cell-binding domain in soluble fibin.) [Peptide P2]", "values": [
      {"measurement": "effect on monocyte adherence", "setting": "A375 cells; [2]", "result": "Inhibition was also observed; also recorded: inhibited adherence to a similar level to that of sFn treatment of both cells"},
      {"measurement": "inhibition of monocyte adherence", "setting": "A375 cells; [3]", "result": "inhibition was still observed"}
    ]},
    {"substance": "fibrinogen [reference compound]", "values": [
      {"measurement": "effect on monocyte adherence", "setting": "A375 cells; [4]", "result": "no significant (P>0.05 compared to untreated cell adherence) inhibition was observed; also recorded: did not significantly inhibit adherence"}
    ]},
    {"substance": "thrombin [reference compound]", "values": [
      {"measurement": "effect on monocyte adherence", "setting": "A375 cells; [4]", "result": "no significant (P>0.05 compared to untreated cell adherence) inhibition was observed; also recorded: did not significantly inhibit adherence"}
    ]}
  ]
}
